Reference: patent US11685720B2, “Salt forms of URAT-1 inhibitors” (INVENTISBIO CO., LTD., priority 2018, dated 2023)
Values after ≈ are worked out from the molar mass of the structure shown.

Key:
Assay type in all cases: physicochemical
[1] = Solubility test, suspension filtered and filtrate analyzed by HPLC; conditions: thermodynamic from solid, 25° C.
Method: The suspension was centrifuged under 200 rpm at 25° C., and 0.3 mL to 0.5 mL of […]. At each time point, the suspension was filtered to remove solid, and the filtrate was analyzed by HPLC.
(§1) The solubilities of the three salts and the Compound 1 were studied in pH 6.8 buffer and water, and the data was summarized in Table 5.

[2] = Dynamic moisture sorption (DVS); conditions: at 80% RH
Method: DYNAMIC MOISTURE SORPTION: Dynamic moisture adsorption and desorption were studied using IGA sorp (Hiden Isochema Ltd. Warrington, UK). About 3-5 mg of prepared sample was placed in a sample basket and hung in the measuring chamber of an IGA Sorp. For an isotherm test, the chamber temperature is maintained by a water bath at constant 25±1° C. The sample was tested at a targeted RH of 10 to 90% full cycle in step mode. The analysis was performed in 10% RH increments. Time duration at each RH was set as min.30 minutes to max. 120 min, so that the sample could reach equilibrium with the chamber environment. Data was collected in 3 minutes increment.

[3] = Solubility test by visual observation; conditions: thermodynamic from solid; for solubility: both water and pH 6.8 buffer; for solubility at 0.5 h: visual observation
Method: The solubilities of 1-Na and 1-K salts were very high, so the solubility was determined by visual observation. Weighed about 5 mg of sample solid (1-Na or 1-K salt) into a 2 mL of vial, and then added 5 uL of pH 6.8 buffer solution or water each time until the solids was dissolved.
as §1

Which results are given for `N#Cc1ccc(-c2cnccc2SCC2(CC(=O)O)CC2)cc1` [Compound 1, 2-(1-(((3-(4-cyanophenyl)pyridin-4-yl)thio)methyl)cyclopropyl)acetic acid]?
solubility at 0.5 h ([1]; aqueous buffer, pH 6.8 buffer): 83 µg/mL (≈ 256 µM); solubility at 2 h ([1]; aqueous buffer, pH 6.8 buffer): 84 µg/mL (≈ 259 µM); solubility at 0.5 h ([1]; water): 19 µg/mL (≈ 58.6 µM); solubility at 2 h ([1]; water): 34 µg/mL (≈ 105 µM)

What does the source list for `N#Cc1ccc(-c2cnccc2SCC2(CC(=O)[O-])CC2)cc1.[Na+]` [1-Na salt, sodium 2-(1-(((3-(4-cyanophenyl)pyridin-4-yl)thio)methyl)cyclopropyl)acetate]?
Water adsorbed (hygroscopicity) [2]: 8.28%; solubility ([3]; aqueous buffer): > 400000 µg/mL; solubility at 0.5 h ([3]; aqueous buffer, pH 6.8 buffer): > 400000 µg/mL; solubility at 0.5 h ([3]; water): > 400000 µg/mL

For `N#Cc1ccc(-c2cnccc2SCC2(CC(=O)[O-])CC2)cc1.[K+]` [1-K salt, potassium 2-(1-(((3-(4-cyanophenyl)pyridin-4-yl)thio)methyl)cyclopropyl)acetate], which “Water adsorbed (hygroscopicity)” value [2] is on record?
The value was 50.63%.

What about the solubility ([3]; aqueous buffer) of the same compound?
Its solubility is greater than 400000 µg/mL.

And the solubility at 0.5 h ([3]; aqueous buffer, pH 6.8 buffer)?
The solubility at 0.5 h was greater than 400000 µg/mL.

What about the solubility at 0.5 h ([3]; water) of the same compound?
The solubility at 0.5 h was greater than 400000 µg/mL.
